Molecular target: Prostaglandin G/H synthase 1/2 (Homo sapiens, UniProt P23219+P35354)
Assay: Inhibition of COX (unknown origin)

Sequence of Prostaglandin G/H synthase 1/2 (P35354 whole entry): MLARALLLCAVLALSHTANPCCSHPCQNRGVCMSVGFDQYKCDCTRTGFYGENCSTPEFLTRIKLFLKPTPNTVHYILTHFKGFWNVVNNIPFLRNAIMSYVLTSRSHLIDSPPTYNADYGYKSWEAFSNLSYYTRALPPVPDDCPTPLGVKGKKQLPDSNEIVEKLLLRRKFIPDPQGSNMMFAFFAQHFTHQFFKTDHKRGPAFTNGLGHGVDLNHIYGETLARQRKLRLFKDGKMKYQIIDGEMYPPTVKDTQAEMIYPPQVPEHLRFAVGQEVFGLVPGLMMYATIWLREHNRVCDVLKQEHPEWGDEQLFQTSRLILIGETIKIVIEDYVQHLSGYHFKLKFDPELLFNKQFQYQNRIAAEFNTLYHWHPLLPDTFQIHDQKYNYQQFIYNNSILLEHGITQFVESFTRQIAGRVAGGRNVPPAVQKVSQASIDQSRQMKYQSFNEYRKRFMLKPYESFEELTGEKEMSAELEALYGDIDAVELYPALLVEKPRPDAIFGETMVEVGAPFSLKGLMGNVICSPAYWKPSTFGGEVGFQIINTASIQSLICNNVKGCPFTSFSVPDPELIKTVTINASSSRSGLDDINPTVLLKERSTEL
Sequence of Prostaglandin G/H synthase 1/2 (P23219 whole entry): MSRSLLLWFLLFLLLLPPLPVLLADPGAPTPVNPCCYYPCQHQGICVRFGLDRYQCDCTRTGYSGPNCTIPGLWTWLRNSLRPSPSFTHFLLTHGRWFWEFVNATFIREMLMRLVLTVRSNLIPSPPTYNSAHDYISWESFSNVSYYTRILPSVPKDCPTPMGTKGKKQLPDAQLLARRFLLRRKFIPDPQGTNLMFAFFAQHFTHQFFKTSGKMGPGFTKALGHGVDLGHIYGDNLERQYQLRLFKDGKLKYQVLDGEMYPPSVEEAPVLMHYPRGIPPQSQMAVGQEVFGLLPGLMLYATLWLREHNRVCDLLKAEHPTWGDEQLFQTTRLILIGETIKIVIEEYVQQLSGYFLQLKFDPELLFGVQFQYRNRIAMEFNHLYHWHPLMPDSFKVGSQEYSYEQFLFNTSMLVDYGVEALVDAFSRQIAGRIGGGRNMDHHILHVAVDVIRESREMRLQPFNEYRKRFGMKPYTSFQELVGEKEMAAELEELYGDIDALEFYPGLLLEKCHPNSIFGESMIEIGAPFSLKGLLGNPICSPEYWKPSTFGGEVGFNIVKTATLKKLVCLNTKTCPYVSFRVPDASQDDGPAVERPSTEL

IC50 [µM]	SMILES
447	O=C(O)Cc1cc(O)ccc1Nc1c(Cl)cccc1Cl [CHEBI:59612]
912	O=C(O)Cc1cc(O)ccc1Nc1c(Cl)cc(O)cc1Cl [CHEBI:223401]

— BindingDB's records for doi:10.1007/s00044-013-0771-5 (n/a, 2013)
